This passage reports IC50 results from patent US7105506B2, “Tetracyclic compounds as PDE5-inhibitors” (Lilly Icos LLC, priority 2001, dated 2006).

This assay has as its target T1, recombinant human PDE5 (Homo sapiens, UniProt O76074).
T1 construct: host or cells: Saccharomyces cerevisiae protease-deficient strain BJ2-54 (ATCC 74465)
Briefly: PDE5 inhibition (cGMP-PDE one-step assay). In kind it is biochemical. The following applies: In vitro. The method, then: The compounds of structural formula (I) were tested for an ability to inhibit PDE5. The ability of a compound to inhibit PDE5 activity is related to the IC50 value for the compound, i.e., the concentration of inhibitor required for 50% inhibition of enzyme activity. The IC50 value for compounds of structural formula (I) were determined using recombinant human PDE5.
Phosphodiesterase activity of the preparations was determined as follows. PDE assays utilizing a charcoal separation technique were performed essentially as described in Loughney et al. (1996). In this assay, PDE activity converts [32P]cAMP or [32P]cGMP to the corresponding [32P]5′-AMP or [32P]5′-GMP in proportion to the amount of PDE activity present. The [32P]5′-AMP or [32P]5′-GMP then was quantitatively converted to free [32P]phosphate and unlabeled adenosine or guanosine by the action of snake venom 5′-nucleotidase. […] The assay was performed at 30° C. in a 100 μL reaction mixture containing (final concentrations) 40 mM iris HCl (pH 8.0), 1 μM ZnSO4, 5 mM MgCl2, and 0.1 mg/mL bovine serum albumin (BSA). PDE enzyme was present in quantities that yield <30% total hydrolysis of substrate (linear assay conditions). The assay was initiated by addition of substrate ([…] [^32P]cAMP or cGMP), and the mixture was incubated for 12 minutes. Seventy-five (75) […] of Crotalus atrox venom then was added, and the incubation was continued for 3 minutes (15 minutes total). The reaction was stopped by addition of 200 μL of activated charcoal (25 mg/mL suspension in 0.1 M NaH2PO4, pH 4). After centrifugation. (750×g for 3 minutes) to sediment the charcoal, a sample of the supernatant was taken for radioactivity determination in a scintillation counter and the PDE activity was calculated.
cGMP-PDE activity of compounds of the present invention was measured using a one-step assay adapted from Wells et al., Biochim. Biophys. Acta, 384, 430 (1975). The reaction medium contained 50 mM Tris-HCl, pH 7.5, 5 mM magnesium acetate, 250 μg/ml 5′-Nucleotidase, 1 mM EGTA, and 0.15 μM 8-[H^3]-cGMP. Unless otherwise indicated, the enzyme used was a human recombinant PDE5 (ICOS Corp., Bothell, Wash.).
Compounds of the invention were dissolved in DMSO finally present at 2% in the assay.
With `C[C@@H]1c2c([nH]c3ccccc23)[C@H](c2ccc3c(c2)OCO3)N2C(=O)CN(C)C(=O)[C@@H]12` (racemic) [Example 4b, (+−, trans, trans methyl)-6-Benzo[1,3]dioxol-5-yl-2,12-dimethyl-2,3,6,7,12,12a-hexahydropyrazino[1′,2′:1,6]pyrido[3,4-b]indole-1,3-dione], the IC50 (in general, the midpoint of a concentration-inhibition curve) is 63 nM.

With `CN1CC(=O)N2[C@H](c3ccc4c(c3)OCO4)c3[nH]c4ccccc4c3[C@@H](c3ccccc3)[C@@H]2C1=O` (racemic) [Example 3, (+−, 6,12a cis-12,12a-trans)-6-Benzo-(1,3)-dioxol-5-yl-methyl-12-phenyl-2,3,6,7,12,12a-hexahydro-pyrazino[1′,2′:1,6]pyrido[3,4-b]indole-1,4-dione], the IC50 is 47 nM.

With `CN1CC(=O)N2[C@H](Cc3c([nH]c4ccccc34)[C@@]2(C)c2ccc3c(c2)OCO3)C1=O` [Example 2a, (+−, Cis)-6-Benzo[1,3]dioxol-5-yl-2,6-dimethyl-2,3,6,7,12,12a-hexahydropyrazino-[1′,2′:1,6]pyrido[3,4-b]indole-1,4-dione], the IC50 was 685 nM.

With `CN1CC(=O)N2[C@H](Cc3c([nH]c4ccccc34)[C@]2(C)c2ccc3c(c2)OCO3)C1=O` [Example 2b, (+−, trans)-6-Benzo[1,3]dioxol-5-yl-2,6-dimethyl-2,3,6,7,12,12a-hexahydropyrazino-[1′,2′:1,6]pyrido[3,4-b]indole-1,4-dione], the IC50 worked out at 260 nM.

`C[C@@H]1c2c([nH]c3ccccc23)[C@@H](c2ccc3c(c2)OCO3)N2C(=O)CN(C)C(=O)[C@@H]12` (racemic) [Example 4a, (+−, cis, trans methyl)-6-Benzo[1,3]dioxol-5-yl-2,12-dimethyl-2,3,6,7,12,12a-hexahydropyrazino[1′,2′:1,6]pyrido[3,4-b]indole-1,3-dione]: the half-maximal inhibitory concentration (IC50) came out at 4 nM.

On to `CN1CC(=O)N2[C@H](Cc3c([nH]c4ccccc34)[C@@]2(O)c2ccc3c(c2)OCO3)C1=O` [Example 5, (6S,12aR)-6-Benzo[1,3]dioxol-5-yl-6-hydroxy-2-methyl-2,3,6,7,12,12a-hexahydropyrzino[1′,2′:1,6]pyrido[3,4-b]indole-1,4-dione], for which the IC50 is 142 nM.

As for `CN1CC(=O)N2[C@H](c3ccc4c(c3)OCO4)c3[nH]c4ccccc4c3C[C@]2(C)C1=O` [Example 1, (6R,12aR)-6-Benzo[1,3]dioxol-5-yl-2,12a-dimethyl-2,3,6,7,12,12a-hexahydro-pyrazino-[1,2′:1,6]pyrido[3,4-b]indole-1,4-dione], the IC50 was found to be 46 nM.
